What was measured:
Format in all cases: in vivo, mice
L-1210 Leukemia = L-1210 Leukemia (Table IX)
Protocol: The sodium and ammonium salts of the present invention were tested against transplantable mouse tumors as indicated below.

B16 Melanoma [1] = experiment: B16 Melanoma - Test 2 (ip tumor brei); conditions: QD +9
L1210 Leukemia = L1210 Leukemia - Test 2
B16 Melanoma [2] = experiment: B16 Melanoma - Test 1 (ip tumor brei); conditions: for Av. Wt. Change, g Day 5 / Effect MST % T/C / MST Days / Survivors Day 5(60): QD 1→9, vehicle Saline

N.N.[Cl][Pt][Cl] [Cis-DDP, cis-diammine dichloroplatinum (II)]
Average Weight Change,g (L-1210 Leukemia; 0.4 mg/kg/inj ip, qd 1→9): -0.6 g
Effect MST % T/C (L-1210 Leukemia; 0.4 mg/kg/inj ip, qd 1→9): 108 % T/C
MST Days (L-1210 Leukemia; 0.4 mg/kg/inj ip, qd 1→9): 7.0 days
Survivors Day 5(45) (L-1210 Leukemia; 0.4 mg/kg/inj ip, qd 1→9): 6/6
Average Weight Change,g (L-1210 Leukemia; 0.8 mg/kg/inj ip, qd 1→9): -2.1 g
Effect MST % T/C (L-1210 Leukemia; 0.8 mg/kg/inj ip, qd 1→9): 138 % T/C
MST Days (L-1210 Leukemia; 0.8 mg/kg/inj ip, qd 1→9): 9.0 days
Survivors Day 5(45) (L-1210 Leukemia; 0.8 mg/kg/inj ip, qd 1→9): 6/6
Average Weight Change,g (L-1210 Leukemia; 1.6 mg/kg/inj ip, qd 1→9): -2.9 g
Effect MST % T/C (L-1210 Leukemia; 1.6 mg/kg/inj ip, qd 1→9): 154 % T/C
MST Days (L-1210 Leukemia; 1.6 mg/kg/inj ip, qd 1→9): 10.0 days
Survivors Day 5(45) (L-1210 Leukemia; 1.6 mg/kg/inj ip, qd 1→9): 6/6
Average Weight Change,g (L-1210 Leukemia; 2 mg/kg/inj ip, Day 1): -0.7 g
Effect MST % T/C (L-1210 Leukemia; 2 mg/kg/inj ip, Day 1): 138 % T/C
MST Days (L-1210 Leukemia; 2 mg/kg/inj ip, Day 1): 9.0 days
Survivors Day 5(45) (L-1210 Leukemia; 2 mg/kg/inj ip, Day 1): 6/6
Average Weight Change,g (L-1210 Leukemia; 2.4 mg/kg/inj ip, qd 1→9): -3.8 g
Effect MST % T/C (L-1210 Leukemia; 2.4 mg/kg/inj ip, qd 1→9): 177 % T/C
MST Days (L-1210 Leukemia; 2.4 mg/kg/inj ip, qd 1→9): 11.5 days
Survivors Day 5(45) (L-1210 Leukemia; 2.4 mg/kg/inj ip, qd 1→9): 6/6
Average Weight Change,g (L-1210 Leukemia; 4 mg/kg/inj ip, Day 1): -2.1 g
Effect MST % T/C (L-1210 Leukemia; 4 mg/kg/inj ip, Day 1): 123 % T/C
MST Days (L-1210 Leukemia; 4 mg/kg/inj ip, Day 1): 8.0 days
Survivors Day 5(45) (L-1210 Leukemia; 4 mg/kg/inj ip, Day 1): 6/6
Average Weight Change,g (L-1210 Leukemia; 6 mg/kg/inj ip, Day 1): -3.7 g
Effect MST % T/C (L-1210 Leukemia; 6 mg/kg/inj ip, Day 1): 154 % T/C
MST Days (L-1210 Leukemia; 6 mg/kg/inj ip, Day 1): 10.0 days
Survivors Day 5(45) (L-1210 Leukemia; 6 mg/kg/inj ip, Day 1): 6/6
Average Weight Change,g (L-1210 Leukemia; 8 mg/kg/inj ip, Day 1): -3.4 g
Effect MST % T/C (L-1210 Leukemia; 8 mg/kg/inj ip, Day 1): 185 % T/C
MST Days (L-1210 Leukemia; 8 mg/kg/inj ip, Day 1): 12.0 days
Survivors Day 5(45) (L-1210 Leukemia; 8 mg/kg/inj ip, Day 1): 6/6
maximum T/C (L-1210 Leukemia; qd 1→9 (cis-DDP 2.4, parent 8 and 12, sodium salt 12 mg/kg/injection)): 177%
maximum T/C (L-1210 Leukemia; single ip injection at maximum tolerated dose (cis-DDP 8 mg/kg, the two others 36 mg/kg)): 185%
Average Weight Change (B16 Melanoma [1]; 0.4 mg/kg/day ip): -2.0 g
Effect MST % T/C (B16 Melanoma [1]; 0.4 mg/kg/day ip): 121 % T/C
MST Days (B16 Melanoma [1]; 0.4 mg/kg/day ip): 25.0 days
Average Weight Change (B16 Melanoma [1]; 0.8 mg/kg/day ip): -1.5 g
Effect MST % T/C (B16 Melanoma [1]; 0.8 mg/kg/day ip): 139 % T/C
MST Days (B16 Melanoma [1]; 0.8 mg/kg/day ip): 38.5 days
Average Weight Change (B16 Melanoma [1]; 1.6 mg/kg/day ip): -2.7 g
Effect MST % T/C (B16 Melanoma [1]; 1.6 mg/kg/day ip): 173 % T/C
MST Days (B16 Melanoma [1]; 1.6 mg/kg/day ip): 35.5 days
Survivors Day 10 (60) (B16 Melanoma [1]; 0.4 mg/kg/day ip): 8/10
Survivors Day 10 (60) (B16 Melanoma [1]; 0.8 mg/kg/day ip): 10/10
Survivors Day 10 (60) (B16 Melanoma [1]; 1.6 mg/kg/day ip): 10/10
Average Weight Change,g (L1210 Leukemia; 0.4 mg/kg/inj ip, qd 1→9): +1.6 g
Effect MST % T/C (L1210 Leukemia; 0.4 mg/kg/inj ip, qd 1→9): 100 % T/C
MST Days (L1210 Leukemia; 0.4 mg/kg/inj ip, qd 1→9): 7.0 days
Survivors Day 5(30) (L1210 Leukemia; 0.4 mg/kg/inj ip, qd 1→9): 6/6
Average Weight Change (L1210 Leukemia; 0.8 mg/kg/inj ip, qd 1→9): -0.7 g
Effect MST % T/C (L1210 Leukemia; 0.8 mg/kg/inj ip, qd 1→9): 107 % T/C
MST Days (L1210 Leukemia; 0.8 mg/kg/inj ip, qd 1→9): 7.5 days
Survivors Day 5(30) (L1210 Leukemia; 0.8 mg/kg/inj ip, qd 1→9): 6/6
Average Weight Change (L1210 Leukemia; 1.6 mg/kg/inj ip, qd 1→9): -2.2 g
Effect MST % T/C (L1210 Leukemia; 1.6 mg/kg/inj ip, qd 1→9): 157 % T/C
MST Days (L1210 Leukemia; 1.6 mg/kg/inj ip, qd 1→9): 11.0 days
Survivors Day 5(30) (L1210 Leukemia; 1.6 mg/kg/inj ip, qd 1→9): 6/6
Average Weight Change,g (L1210 Leukemia; 2 mg/kg/inj iv, d.1, 5 & 9): +1.7 g
Effect MST % T/C (L1210 Leukemia; 2 mg/kg/inj iv, d.1, 5 & 9): 100 % T/C
MST Days (L1210 Leukemia; 2 mg/kg/inj iv, d.1, 5 & 9): 7.0 days
Survivors Day 5(30) (L1210 Leukemia; 2 mg/kg/inj iv, d.1, 5 & 9): 6/6
Average Weight Change (L1210 Leukemia; 2.4 mg/kg/inj ip, qd 1→9): -3.3 g
Effect MST % T/C (L1210 Leukemia; 2.4 mg/kg/inj ip, qd 1→9): 214 % T/C
MST Days (L1210 Leukemia; 2.4 mg/kg/inj ip, qd 1→9): 15.0 days
Survivors Day 5(30) (L1210 Leukemia; 2.4 mg/kg/inj ip, qd 1→9): 6/6
Average Weight Change (L1210 Leukemia; 4 mg/kg/inj ip, d.1): -0.7 g
Effect MST % T/C (L1210 Leukemia; 4 mg/kg/inj ip, d.1): 136 % T/C
MST Days (L1210 Leukemia; 4 mg/kg/inj ip, d.1): 9.5 days
Survivors Day 5(30) (L1210 Leukemia; 4 mg/kg/inj ip, d.1): 6/6
Average Weight Change,g (L1210 Leukemia; 4 mg/kg/inj iv, d.1): +1.8 g
Effect MST % T/C (L1210 Leukemia; 4 mg/kg/inj iv, d.1): 100 % T/C
MST Days (L1210 Leukemia; 4 mg/kg/inj iv, d.1): 7.0 days
Survivors Day 5(30) (L1210 Leukemia; 4 mg/kg/inj iv, d.1): 6/6
Average Weight Change,g (L1210 Leukemia; 4 mg/kg/inj iv, d.1, 5 & 9): +0.8 g
Effect MST % T/C (L1210 Leukemia; 4 mg/kg/inj iv, d.1, 5 & 9): 100 % T/C
MST Days (L1210 Leukemia; 4 mg/kg/inj iv, d.1, 5 & 9): 7.0 days
Survivors Day 5(30) (L1210 Leukemia; 4 mg/kg/inj iv, d.1, 5 & 9): 6/6
Average Weight Change (L1210 Leukemia; 6 mg/kg/inj ip, d.1): -1.8 g
Effect MST % T/C (L1210 Leukemia; 6 mg/kg/inj ip, d.1): 171 % T/C
MST Days (L1210 Leukemia; 6 mg/kg/inj ip, d.1): 12.0 days
Survivors Day 5(30) (L1210 Leukemia; 6 mg/kg/inj ip, d.1): 6/6
Average Weight Change (L1210 Leukemia; 6 mg/kg/inj iv, d.1): -0.2 g
Effect MST % T/C (L1210 Leukemia; 6 mg/kg/inj iv, d.1): 114 % T/C
MST Days (L1210 Leukemia; 6 mg/kg/inj iv, d.1): 8.0 days
Survivors Day 5(30) (L1210 Leukemia; 6 mg/kg/inj iv, d.1): 6/6
Average Weight Change (L1210 Leukemia; 6 mg/kg/inj iv, d.1, 5 & 9): -1.1 g
Effect MST % T/C (L1210 Leukemia; 6 mg/kg/inj iv, d.1, 5 & 9): 164 % T/C
MST Days (L1210 Leukemia; 6 mg/kg/inj iv, d.1, 5 & 9): 11.5 days
Survivors Day 5(30) (L1210 Leukemia; 6 mg/kg/inj iv, d.1, 5 & 9): 6/6
Average Weight Change (L1210 Leukemia; 8 mg/kg/inj ip, d.1): -2.8 g
Effect MST % T/C (L1210 Leukemia; 8 mg/kg/inj ip, d.1): 186 % T/C
MST Days (L1210 Leukemia; 8 mg/kg/inj ip, d.1): 13.0 days
Survivors Day 5(30) (L1210 Leukemia; 8 mg/kg/inj ip, d.1): 6/6
Average Weight Change (L1210 Leukemia; 8 mg/kg/inj iv, d.1): -3.7 g
Effect MST % T/C (L1210 Leukemia; 8 mg/kg/inj iv, d.1): 129 % T/C
MST Days (L1210 Leukemia; 8 mg/kg/inj iv, d.1): 9.0 days
Survivors Day 5(30) (L1210 Leukemia; 8 mg/kg/inj iv, d.1): 6/6
Average Weight Change (L1210 Leukemia; 8 mg/kg/inj iv, d.1, 5 & 9): -2.1 g
Effect MST % T/C (L1210 Leukemia; 8 mg/kg/inj iv, d.1, 5 & 9): 179 % T/C
MST Days (L1210 Leukemia; 8 mg/kg/inj iv, d.1, 5 & 9): 12.5 days
Survivors Day 5(30) (L1210 Leukemia; 8 mg/kg/inj iv, d.1, 5 & 9): 6/6
Average Weight Change (L1210 Leukemia; 10 mg/kg/inj ip, d.1): -4.4 g
Effect MST % T/C (L1210 Leukemia; 10 mg/kg/inj ip, d.1): 214 % T/C
MST Days (L1210 Leukemia; 10 mg/kg/inj ip, d.1): 15.0 days
Survivors Day 5(30) (L1210 Leukemia; 10 mg/kg/inj ip, d.1): 6/6
Average Weight Change (L1210 Leukemia; 10 mg/kg/inj iv, d.1): -3.9 g
Effect MST % T/C (L1210 Leukemia; 10 mg/kg/inj iv, d.1): 143 % T/C
MST Days (L1210 Leukemia; 10 mg/kg/inj iv, d.1): 10.0 days
Survivors Day 5(30) (L1210 Leukemia; 10 mg/kg/inj iv, d.1): 6/6
maximum T/C (L1210 Leukemia; iv, multi-dose regimen): 179%
maximum T/C (L1210 Leukemia; multi-dose therapy ip (qd 1→9)): 207-214%
maximum T/C (L1210 Leukemia; single ip doses, ip L1210): 214%
Av. Wt. Change, g Day 5 (B16 Melanoma [2]; 0.8 mg/kg/day ip): -1.0 g
Effect MST % T/C (B16 Melanoma [2]; 0.8 mg/kg/day ip): 174 % T/C
MST Days (B16 Melanoma [2]; 0.8 mg/kg/day ip): 34.0 days
Av. Wt. Change, g Day 5 (B16 Melanoma [2]; 1.6 mg/kg/day ip): -4.3 g
Effect MST % T/C (B16 Melanoma [2]; 1.6 mg/kg/day ip): 36 % T/C
MST Days (B16 Melanoma [2]; 1.6 mg/kg/day ip): 7.0 days
Av. Wt. Change, g Day 5 (B16 Melanoma [2]; 2.0 mg/kg/day ip): -4.5 g
Effect MST % T/C (B16 Melanoma [2]; 2.0 mg/kg/day ip): 36 % T/C
MST Days (B16 Melanoma [2]; 2.0 mg/kg/day ip): 7.0 days
Survivors Day 5(60) (B16 Melanoma [2]; 0.8 mg/kg/day ip): 10/10
Survivors Day 5(60) (B16 Melanoma [2]; 1.6 mg/kg/day ip): 9/9
Survivors Day 5(60) (B16 Melanoma [2]; 2.0 mg/kg/day ip): 8/10
mice cured (B16 Melanoma [2]; ip B16, at the dose of maximum T/C): no cures
maximum T/C (B16 Melanoma [2]; ip B16, ip QD 1→9): 174%

— patent EP0041644B1 (priority 1980, dated 1981)
